One compound from patent US12410152B2, “Oxazole and thioazole-type cullin ring ubiquitin ligase compounds and uses thereof” (Proxygen GmbH, priority 2019, dated 2025) can be followed below.

For the assay, the target named is T1, CRL4B complex (CUL4B, DDB1) (Homo sapiens, UniProt Q13620+Q16531).
T1 construct: endogenous in cells; host or cells: KBM7 WT cells
Briefly: Chemoproteomics with IC021313.2 photoaffinity probe, competitive setup. Format: binding. As to conditions: KBM7 WT; 100 μM competitor, 10 μM photoprobe. The text has this: Another explanation would be (2) functional redundancy, where our identified small-molecules modulate more than one SR in an interchangeable manner (either directly or indirectly). Lastly (3), it could be that the tested molecules endow a neomorphic function of the CRL4B complex by binding to a non-SR component. In order to disentangle these hypotheses, and to test if the assayed molecules would directly bind to/physically engage the CRL4B complex, IC021313.2 was derivatized with a moiety consisting of a photoactive diazirine group and an alkyl handle (FIG. 7). The ensuing functionalized molecule was used to purify proteins physically binding to the compound (“interactors”). In order to gain increased confidence, a competitive setup was chosen where cells were initially treated with the parental, non-modified compound or vehicle control. Compound treatment (1h) at excess concentrations of 100 μM was expected to saturate binding sites. Subsequently, cells (both vehicle- and compound-treated) were treated with the functionalized probe for 1 h at 10 μM, followed by UV-crosslinking. Next, cells were lysed and a biotin-azide linker was attached via click chemistry, and interacting proteins (“interactors”) were purified via biotin enrichment over a Streptavidin column and subjected to unbiased detection via label-free proteomics analysis. […]

Molecules are shown by their SMILES.

T1 sequence (Q13620 whole entry): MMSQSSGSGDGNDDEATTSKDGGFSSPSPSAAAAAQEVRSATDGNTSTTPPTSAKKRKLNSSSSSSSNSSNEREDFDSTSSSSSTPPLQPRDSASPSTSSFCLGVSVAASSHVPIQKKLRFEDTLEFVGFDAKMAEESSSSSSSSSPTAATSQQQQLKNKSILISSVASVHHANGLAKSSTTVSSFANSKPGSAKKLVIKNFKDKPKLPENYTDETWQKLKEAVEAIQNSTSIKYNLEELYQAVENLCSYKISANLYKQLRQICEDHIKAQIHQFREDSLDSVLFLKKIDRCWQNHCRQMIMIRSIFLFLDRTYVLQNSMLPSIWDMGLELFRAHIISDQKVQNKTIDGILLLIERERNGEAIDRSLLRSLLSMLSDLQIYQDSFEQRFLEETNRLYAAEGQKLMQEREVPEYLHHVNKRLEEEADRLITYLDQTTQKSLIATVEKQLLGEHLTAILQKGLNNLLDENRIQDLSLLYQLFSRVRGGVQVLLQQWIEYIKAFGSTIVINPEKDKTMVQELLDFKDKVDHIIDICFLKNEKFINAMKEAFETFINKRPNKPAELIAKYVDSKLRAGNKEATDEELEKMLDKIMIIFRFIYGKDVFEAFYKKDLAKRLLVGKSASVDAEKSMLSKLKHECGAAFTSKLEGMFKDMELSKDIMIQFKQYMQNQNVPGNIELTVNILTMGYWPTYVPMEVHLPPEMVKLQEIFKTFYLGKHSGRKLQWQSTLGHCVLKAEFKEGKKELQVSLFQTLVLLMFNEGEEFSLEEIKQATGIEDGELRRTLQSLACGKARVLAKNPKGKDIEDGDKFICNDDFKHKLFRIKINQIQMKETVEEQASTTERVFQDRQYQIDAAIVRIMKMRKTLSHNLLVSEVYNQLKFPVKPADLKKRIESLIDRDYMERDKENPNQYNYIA
T1 sequence (Q16531 2-1140 limits assumed): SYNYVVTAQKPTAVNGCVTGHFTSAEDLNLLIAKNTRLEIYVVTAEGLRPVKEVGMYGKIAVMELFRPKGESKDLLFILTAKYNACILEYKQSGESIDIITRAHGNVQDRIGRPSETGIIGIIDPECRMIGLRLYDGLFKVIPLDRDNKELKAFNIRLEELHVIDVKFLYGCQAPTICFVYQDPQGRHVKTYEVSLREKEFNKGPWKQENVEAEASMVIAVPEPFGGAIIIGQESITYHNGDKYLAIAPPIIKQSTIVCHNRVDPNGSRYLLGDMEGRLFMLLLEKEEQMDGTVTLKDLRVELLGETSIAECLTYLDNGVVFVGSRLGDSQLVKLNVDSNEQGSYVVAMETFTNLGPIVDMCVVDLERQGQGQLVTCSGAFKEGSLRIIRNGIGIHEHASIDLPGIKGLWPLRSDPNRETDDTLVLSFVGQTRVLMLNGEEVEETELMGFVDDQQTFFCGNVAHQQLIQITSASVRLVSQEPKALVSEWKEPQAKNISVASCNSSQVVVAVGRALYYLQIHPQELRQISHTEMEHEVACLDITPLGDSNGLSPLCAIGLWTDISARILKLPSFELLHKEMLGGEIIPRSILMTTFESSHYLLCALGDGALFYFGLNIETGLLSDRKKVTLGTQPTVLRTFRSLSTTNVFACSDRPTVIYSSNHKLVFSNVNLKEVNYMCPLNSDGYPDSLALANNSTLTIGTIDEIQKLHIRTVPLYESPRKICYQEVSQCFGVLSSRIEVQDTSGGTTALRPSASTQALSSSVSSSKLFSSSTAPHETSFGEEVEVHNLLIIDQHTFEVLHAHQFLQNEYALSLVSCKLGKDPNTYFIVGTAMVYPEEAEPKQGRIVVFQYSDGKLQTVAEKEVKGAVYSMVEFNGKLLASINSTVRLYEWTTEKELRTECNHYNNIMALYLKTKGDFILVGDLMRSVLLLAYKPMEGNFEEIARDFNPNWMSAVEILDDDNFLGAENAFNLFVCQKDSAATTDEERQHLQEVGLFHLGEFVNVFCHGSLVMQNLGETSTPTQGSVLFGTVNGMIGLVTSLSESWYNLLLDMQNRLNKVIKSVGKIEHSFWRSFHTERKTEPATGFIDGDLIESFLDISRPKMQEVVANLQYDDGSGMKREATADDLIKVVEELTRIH
T1 sequence (Q9NYV4 whole entry partner): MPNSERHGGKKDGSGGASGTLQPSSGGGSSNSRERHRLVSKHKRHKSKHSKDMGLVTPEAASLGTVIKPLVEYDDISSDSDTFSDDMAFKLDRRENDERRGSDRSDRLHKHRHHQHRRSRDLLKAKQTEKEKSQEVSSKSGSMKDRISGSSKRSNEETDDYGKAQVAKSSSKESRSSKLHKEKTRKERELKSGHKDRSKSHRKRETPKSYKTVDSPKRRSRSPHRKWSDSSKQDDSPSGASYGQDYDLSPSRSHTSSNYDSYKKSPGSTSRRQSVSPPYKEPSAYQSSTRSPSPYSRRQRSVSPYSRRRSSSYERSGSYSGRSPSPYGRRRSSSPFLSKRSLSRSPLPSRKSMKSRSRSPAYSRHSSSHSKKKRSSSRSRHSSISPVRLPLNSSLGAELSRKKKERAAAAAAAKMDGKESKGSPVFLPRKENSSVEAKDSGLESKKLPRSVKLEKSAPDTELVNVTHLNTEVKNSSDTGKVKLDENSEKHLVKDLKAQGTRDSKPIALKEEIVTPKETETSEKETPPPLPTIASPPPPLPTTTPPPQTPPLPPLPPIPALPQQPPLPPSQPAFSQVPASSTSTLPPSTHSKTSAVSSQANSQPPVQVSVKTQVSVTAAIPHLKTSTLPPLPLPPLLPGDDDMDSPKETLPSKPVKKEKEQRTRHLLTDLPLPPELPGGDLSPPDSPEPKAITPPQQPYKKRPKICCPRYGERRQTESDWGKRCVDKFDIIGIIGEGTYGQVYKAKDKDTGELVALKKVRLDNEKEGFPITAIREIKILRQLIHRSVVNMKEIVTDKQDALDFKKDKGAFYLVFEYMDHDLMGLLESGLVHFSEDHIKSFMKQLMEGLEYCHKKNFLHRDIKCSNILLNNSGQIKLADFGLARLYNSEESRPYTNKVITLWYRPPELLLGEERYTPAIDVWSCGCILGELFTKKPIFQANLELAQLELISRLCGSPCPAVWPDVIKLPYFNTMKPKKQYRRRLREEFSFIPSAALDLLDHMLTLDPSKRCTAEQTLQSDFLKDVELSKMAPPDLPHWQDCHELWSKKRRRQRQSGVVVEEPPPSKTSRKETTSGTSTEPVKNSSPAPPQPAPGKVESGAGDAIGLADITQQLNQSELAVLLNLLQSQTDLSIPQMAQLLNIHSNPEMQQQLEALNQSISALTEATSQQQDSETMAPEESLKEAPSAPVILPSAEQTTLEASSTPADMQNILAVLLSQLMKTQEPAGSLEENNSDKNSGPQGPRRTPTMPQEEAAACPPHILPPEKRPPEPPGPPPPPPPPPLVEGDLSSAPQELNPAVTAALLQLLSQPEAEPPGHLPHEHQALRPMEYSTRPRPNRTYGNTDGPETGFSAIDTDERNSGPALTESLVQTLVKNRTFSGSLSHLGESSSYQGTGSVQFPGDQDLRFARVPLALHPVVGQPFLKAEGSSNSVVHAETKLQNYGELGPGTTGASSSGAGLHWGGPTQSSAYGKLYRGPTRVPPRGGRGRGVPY
T1 sequence (O75909 whole entry partner): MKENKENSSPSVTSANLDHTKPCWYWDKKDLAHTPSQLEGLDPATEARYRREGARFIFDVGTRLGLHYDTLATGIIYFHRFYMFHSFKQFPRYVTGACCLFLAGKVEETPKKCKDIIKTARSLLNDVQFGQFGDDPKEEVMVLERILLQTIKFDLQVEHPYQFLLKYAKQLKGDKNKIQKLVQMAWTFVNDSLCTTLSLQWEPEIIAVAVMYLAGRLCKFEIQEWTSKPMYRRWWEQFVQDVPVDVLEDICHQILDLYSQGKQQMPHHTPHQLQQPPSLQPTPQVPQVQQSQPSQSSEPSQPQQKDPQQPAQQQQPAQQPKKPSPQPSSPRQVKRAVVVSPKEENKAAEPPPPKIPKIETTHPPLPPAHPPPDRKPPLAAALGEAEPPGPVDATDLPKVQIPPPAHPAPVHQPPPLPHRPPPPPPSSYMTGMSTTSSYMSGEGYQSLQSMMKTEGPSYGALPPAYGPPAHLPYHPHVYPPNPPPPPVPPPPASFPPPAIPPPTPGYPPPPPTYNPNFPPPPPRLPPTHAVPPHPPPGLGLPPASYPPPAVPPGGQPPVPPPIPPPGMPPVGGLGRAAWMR

As for `O=C(CSc1nc2ccccc2[nH]1)Nc1ccc(Cl)cn1` [IC021313.2], the “physical engagement of CRL4B complex (competitive photoprobe pulldown, MS)” value is on record as “physically engages with a CRL4B complex”.
